Compound in one test: CCCCCCCCCCCCCCCC(=O)Nc1ccn([C@@H]2O[C@H](CO)[C@@H](O)[C@@H]2C#N)c(=O)n1 [SAPACITABINE]
Description: area under dose-response curve of surviving fraction (unscaled, Aref=0) (surviving fraction x log10(nM)); higher = more resistant. Particulars: exposure time: 5 days; dose range 0.5-1000 nM. The gist of the method: (§1)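 Inhibitor was applied to tumour cell lines at eight concentrations (0.5 to 1000 nM) for five days in 384-well plates. Luminescence from CellTiter-Glo, scaled to DMSO-only wells, gave surviving fractions in three screens per line, and these were fitted by 3-parameter logistic regression with the drc R package. The area under the curve is an unscaled activity area. Aref was 0, and dose was on a log10 scale.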

Compound in another test: CNC(=O)c1ccc(N2C(=S)N(c3ccc(C#N)c(C(F)(F)F)c3)C(=O)C2(C)C)cc1F [MDV3100]
The test is described as above. The note with it: exposure time: 5 days; dose range 0.5-1000 nM. Summed up:
as §1

Compound in test [1]: T1, C=CC(=O)Nc1cc2c(Nc3ccc(F)c(Cl)c3)ncnc2cc1OCCCN1CCOCC1 [CANERTINIB]
The description is as above. The note with it: exposure time: 5 days; dose range 0.5-1000 nM. The gist of the method: as §1

Compound in the next test: CC[C@@H]1C(=O)N(C)c2cnc(Nc3ccc(C(=O)NC4CCN(C)CC4)cc3OC)nc2N1C1CCCC1 [BI-2536]
The test is described as above. Particulars: exposure time: 5 days; dose range 0.5-1000 nM. Summed up: as §1

Compound in test [2]: Cn1cc(C2=Nc3cc(NC(=O)C(N)C4CCCCC4)cc4c3C2=CNNC4=O)cn1
Description: surviving fraction relative to DMSO-only wells; higher = less growth inhibition. Particulars: exposure time: 5 days. Summed up:
(§2)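 Inhibitors were tested at 0.5, 1, 5, 10, 50, 100, 500 and 1000 nM, applied continuously for five days beginning 24 hours after log-phase tumour cells were seeded at 250–500 per well in 384-well plates. CellTiter-Glo luminescence served as the viability measure, expressed as surviving fraction against the median of DMSO-only wells. Each line, screened three times, was kept only with replicate Pearson r >0.7 and median Z' >0.3.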

Compound in test [3]: T1, CANERTINIB
The description is as above. The note with it: exposure time: 5 days. The gist of the method:
as §2

± gives the standard deviation of the averaged measurements.

With CAL51 BREAST, the “area under dose-response curve” value with SAPACITABINE turned out to be 2.32; with MDV3100, 3.24; in the test with CANERTINIB [1], 3.08; with BI-2536, 0.68. Moreover, the surviving fraction in test [2] (0.5 nM) came out at 0.889 ± 0.037; in test [2] (1 nM), 0.973 ± 0.041; in test [2] (5 nM), 0.945 ± 0.052; in test [2] (10 nM) it was 0.903 ± 0.037; in test [2] (50 nM), 0.962 ± 0.079; in test [2] (100 nM), 0.875 ± 0.048. The surviving fraction in test [2] (500 nM) was 0.484 ± 0.0085; in test [2] (1000 nM) it was 0.276 ± 0.026; in the test with CANERTINIB [3] (0.5 nM), 0.937 ± 0.078; in the test with CANERTINIB [3] (1 nM) it was 0.92 ± 0.061; with CANERTINIB [3] (5 nM) it was 0.983 ± 0.053; with CANERTINIB [3] (10 nM), 0.976 ± 0.018. Besides, the surviving fraction in the test with CANERTINIB [3] (50 nM) is 0.974 ± 0.038; with CANERTINIB [3] (100 nM) it was 1.05 ± 0.083; with CANERTINIB [3] (500 nM), 0.87 ± 0.014; with CANERTINIB [3] (1000 nM) it was 0.481 ± 0.015.
As for LM7 BONE, the “area under dose-response curve” value amounted to 1.77 in the test with SAPACITABINE, 3.51 with MDV3100, 2.42 with CANERTINIB [1] and 0.659 with BI-2536. For the same test system, the surviving fraction worked out at 0.979 ± 0.073 in test [2] (0.5 nM); 0.898 ± 0.06 in test [2] (1 nM); 1.04 ± 0.07 in test [2] (5 nM); 1.01 ± 0.11 in test [2] (10 nM); 0.826 ± 0.017 in test [2] (50 nM); 0.651 ± 0.033 in test [2] (100 nM). The surviving fraction is 0.119 ± 0.015 in test [2] (500 nM); 0.0753 ± 0.0038 in test [2] (1000 nM); 0.739 ± 0.015 with CANERTINIB [3] (0.5 nM); 0.657 ± 0.0061 in the test with CANERTINIB [3] (1 nM); 0.791 ± 0.019 with CANERTINIB [3] (5 nM); 0.75 ± 0.012 in the test with CANERTINIB [3] (10 nM). For the same test system, the surviving fraction with CANERTINIB [3] (50 nM) was 0.88 ± 0.044; with CANERTINIB [3] (100 nM), 0.872 ± 0.085; with CANERTINIB [3] (500 nM) it was 0.655 ± 0.026; with CANERTINIB [3] (1000 nM) it was 0.536 ± 0.027.
As for HCC38 BREAST, the “area under dose-response curve” value in the test with SAPACITABINE came to 2.32; in the test with MDV3100, 4.04; with CANERTINIB [1] it was 3.55; in the test with BI-2536, 1.35. Also, the surviving fraction in test [2] (0.5 nM) was 1 ± 0.33; in test [2] (1 nM) it was 1.06 ± 0.23; in test [2] (5 nM), 0.978 ± 0.3; in test [2] (10 nM) it was 0.92 ± 0.11; in test [2] (50 nM), 0.114 ± 0.036; in test [2] (100 nM), 0.031 ± 0.0079. For the same test system, the surviving fraction in test [2] (500 nM) was determined as 0.027 ± 0.0027; in test [2] (1000 nM), 0.021 ± 0.0017; with CANERTINIB [3] (0.5 nM), 1.01 ± 0.11; with CANERTINIB [3] (1 nM), 1.07 ± 0.18; with CANERTINIB [3] (5 nM), 1.08 ± 0.24; with CANERTINIB [3] (10 nM), 1.05 ± 0.082. Also, the surviving fraction in the test with CANERTINIB [3] (50 nM) was determined as 1.19 ± 0.17; in the test with CANERTINIB [3] (100 nM) it was 1.18 ± 0.12; with CANERTINIB [3] (500 nM), 0.948 ± 0.1; in the test with CANERTINIB [3] (1000 nM), 0.864 ± 0.16.
As to SG31 HEADNECK, the “area under dose-response curve” value with SAPACITABINE was found to be 2.62; in the test with MDV3100, 3.39; with CANERTINIB [1], 2.3; with BI-2536 it was 2.2. In addition, the surviving fraction in test [2] (0.5 nM) was 1.01 ± 0.076; in test [2] (1 nM), 1.06 ± 0.18; in test [2] (5 nM), 0.908 ± 0.1; in test [2] (10 nM), 0.901 ± 0.11; in test [2] (50 nM) it was 0.881 ± 0.11; in test [2] (100 nM), 0.825 ± 0.02. In addition, the surviving fraction was 0.79 ± 0.021 in test [2] (500 nM); 0.669 ± 0.052 in test [2] (1000 nM); 0.935 ± 0.084 in the test with CANERTINIB [3] (0.5 nM); 0.907 ± 0.035 with CANERTINIB [3] (1 nM); 0.811 ± 0.043 in the test with CANERTINIB [3] (5 nM); 0.688 ± 0.15 with CANERTINIB [3] (10 nM). Moreover, the surviving fraction with CANERTINIB [3] (50 nM) was 0.63 ± 0.12; with CANERTINIB [3] (100 nM), 0.581 ± 0.086; with CANERTINIB [3] (500 nM) it was 0.588 ± 0.045; with CANERTINIB [3] (1000 nM) it was 0.498 ± 0.1.
As for OSHN BONE, the “area under dose-response curve” value with SAPACITABINE turned out to be 2.83; with MDV3100 it was 3.44; with CANERTINIB [1], 3.16; with BI-2536, 1.13. The surviving fraction amounted to 1.05 ± 0.044 in test [2] (0.5 nM); 1.077 ± 0.001 in test [2] (1 nM); 1.05 ± 0.018 in test [2] (5 nM); 1.062 ± 0.0075 in test [2] (10 nM); 0.959 ± 0.021 in test [2] (50 nM); 0.924 ± 0.017 in test [2] (100 nM). In addition, the surviving fraction in test [2] (500 nM) was 0.0477 ± 0.0023; in test [2] (1000 nM) it was 0.0277 ± 0.00058; with CANERTINIB [3] (0.5 nM) it was 0.898 ± 0.036; with CANERTINIB [3] (1 nM) it was 0.904 ± 0.028; with CANERTINIB [3] (5 nM), 0.932 ± 0.035; with CANERTINIB [3] (10 nM), 0.91 ± 0.019. Besides, the surviving fraction in the test with CANERTINIB [3] (50 nM) was found to be 1.03 ± 0.043; with CANERTINIB [3] (100 nM), 1.03 ± 0.016; with CANERTINIB [3] (500 nM), 1.02 ± 0.0035; in the test with CANERTINIB [3] (1000 nM) it was 1.03 ± 0.028.
CASKI CERVIX: the “area under dose-response curve” value with SAPACITABINE is 2.91; with MDV3100, 3.17; with CANERTINIB [1] it was 1.85; with BI-2536 it was 0.43. Besides, the surviving fraction in test [2] (0.5 nM) was found to be 0.918 ± 0.028; in test [2] (1 nM), 0.962 ± 0.082; in test [2] (5 nM), 0.92 ± 0.028; in test [2] (10 nM), 0.949 ± 0.038; in test [2] (50 nM), 0.511 ± 0.043; in test [2] (100 nM) it was 0.251 ± 0.071. Also, the surviving fraction in test [2] (500 nM) is 0.057 ± 0.0095; in test [2] (1000 nM) it was 0.0573 ± 0.0038; with CANERTINIB [3] (0.5 nM), 0.83 ± 0.027; in the test with CANERTINIB [3] (1 nM), 0.8 ± 0.042; with CANERTINIB [3] (5 nM) it was 0.644 ± 0.052; with CANERTINIB [3] (10 nM), 0.704 ± 0.042. The surviving fraction in the test with CANERTINIB [3] (50 nM) stood at 0.555 ± 0.037; in the test with CANERTINIB [3] (100 nM), 0.516 ± 0.054; with CANERTINIB [3] (500 nM), 0.157 ± 0.018; with CANERTINIB [3] (1000 nM), 0.151 ± 0.022.
HS578T BREAST: the “area under dose-response curve” value with SAPACITABINE stood at 2.8; with MDV3100 it was 3.38; with CANERTINIB [1], 2.92; with BI-2536 it was 0.912. The surviving fraction in test [2] (0.5 nM) amounted to 0.986 ± 0.027; in test [2] (1 nM), 1.06 ± 0.057; in test [2] (5 nM), 0.946 ± 0.14; in test [2] (10 nM), 0.927 ± 0.037; in test [2] (50 nM), 0.788 ± 0.051; in test [2] (100 nM), 0.485 ± 0.049. Further, the surviving fraction in test [2] (500 nM) stood at 0.162 ± 0.0082; in test [2] (1000 nM), 0.174 ± 0.021; with CANERTINIB [3] (0.5 nM) it was 0.851 ± 0.12; in the test with CANERTINIB [3] (1 nM) it was 0.857 ± 0.1; in the test with CANERTINIB [3] (5 nM) it was 0.873 ± 0.066; with CANERTINIB [3] (10 nM), 0.785 ± 0.038. In addition, the surviving fraction with CANERTINIB [3] (50 nM) is 1.04 ± 0.14; in the test with CANERTINIB [3] (100 nM), 1 ± 0.11; with CANERTINIB [3] (500 nM), 0.918 ± 0.11; with CANERTINIB [3] (1000 nM), 0.738 ± 0.14.

The record behind these values is the supplement of paper PMC6045584.
